These results are taken from BindingDB's records for doi:10.1016/j.bmcl.2007.11.060 (Amgen, 2008).

The assay in a line: Antagonist activity at CXCR3 assessed as ITAC-mediated migration of human PBMC in presence of 100% human plasma.
The IC50 is the midpoint of a concentration-inhibition curve. `CCS(=O)(=O)CCN(C(=O)Cc1ccc(F)c(C(F)(F)F)c1)[C@H](C)c1nc2ccccc2n1-c1ccc(C#N)cc1` [(R)-N-(1-(1-(4-cyanophenyl)-1H-benzo[d]imidazol-2-yl)ethyl)-N-(2-(ethylsulfonyl)ethyl)-2-(4-fluoro-3-(trifluoromethyl)phenyl)acetamide]: the IC50 stood at 521 nM.
With `CCS(=O)(=O)CCN(C(=O)Cc1ccc(F)c(C(F)(F)F)c1)[C@H](C)c1nc2ncccc2cc1-c1ccc(C#N)cc1` [(R)-N-(1-(3-(4-cyanophenyl)-1,8-naphthyridin-2-yl)ethyl)-N-(2-(ethylsulfonyl)ethyl)-2-(4-fluoro-3-(trifluoromethyl)phenyl)acetamide] the figure was 48 nM; with `CCS(=O)(=O)CCN(C(=O)Cc1ccc(F)c(C(F)(F)F)c1)[C@H](C)c1nc2c(c(=O)n1-c1ccc(C#N)cc1)CCCN2C` [(R)-N-(1-(3-(4-cyanophenyl)-8-methyl-4-oxo-3,4,5,6,7,8-hexahydropyrido[2,3-d]pyrimidin-2-yl)ethyl)-N-(2-(ethylsulfonyl)ethyl)-2-(4-fluoro-3-(trifluoromethyl)phenyl)acetamide], 88 nM; with `CCS(=O)(=O)CCN(C(=O)Cc1ccc(F)c(C(F)(F)F)c1)[C@H](C)c1nc2ccccn2c1-c1ccc(C#N)cc1` [(R)-N-(1-(3-(4-cyanophenyl)H-imidazo[1,2-a]pyridin-2-yl)ethyl)-N-(2-(ethylsulfonyl)ethyl)-2-(4-fluoro-3-(trifluoromethyl)phenyl)acetamide], 72 nM.
With `CCS(=O)(=O)CCN(C(=O)Cc1ccc(F)c(C(F)(F)F)c1)[C@H](C)c1nc2ccccc2cc1-c1ccc(C#N)cc1` [(R)-N-(1-(3-(4-cyanophenyl)quinolin-2-yl)ethyl)-N-(2-(ethylsulfonyl)ethyl)-2-(4-fluoro-3-(trifluoromethyl)phenyl)acetamide] the figure was 72 nM.
